Assay results published in patent publication US11608325B2, “Polycrystalline form of dehydrophenylahistin-like compound, and manufacturing and purification method and application thereof” (Shenzhen Huahong Marine Biomedicine Co., Ltd., priority 2016, dated 2023).
“Also recorded” adds a separate entry of the source.

Key:
Type in all cases: physicochemical
[1] = Stability study of plinabulin polymorphs
[2] = Hygroscopicity test (Chinese Pharmacopoeia 2015 Volume IV, general rule 9103); conditions: for Weight gain: Left for 24 h
Protocol: The test was conducted according to the general rule 9103 of guiding principle for drug hygroscopicity test in Chinese Pharmacopoeia 2015 edition Volume IV, and the results are shown in Table 6.

[3] = High-humidity stress test (25° C., 90% RH); conditions: for stability / transformation under high-humidity condition: stress testing, high humidity (25° C., 90% RH); for Appearance / Content (HPLC) (calculated as an anhydride) / Relevant substance Impurity D / Relevant substance Total impurities / Relevant substance Impurity A: High-humidity test/25° C., 90% RH; for Relevant substance Impurity A: LOQ (0.035%)
Protocol: (§1) In accordance with the general rule 9001 of guiding principles for stability tests of APIs and preparations in the Chinese Pharmacopoeia 2015 edition Volume IV, stress testing of the δ-crystalline form of (3Z,6Z)-3-benzylidene-6-[(5-tert-butyl-1H-imidazol-4-yl)deuteromethylene]piperazine-2,5-dione was conducted under high temperature, high humidity and illumination conditions, the sample batch number was 20150401, and the results are shown in Tables 7, 8 and 9 below.

[4] = Transformation of other crystalline forms under humidity or in water
[5] = High-temperature stress test (60° C.); conditions: for stability under high-temperature condition: stress testing, high temperature (60° C.); for Appearance / Content (HPLC) (calculated as an anhydride) / Relevant substance (HPLC) Impurity D / Relevant substance (HPLC) Total impurities / Relevant substance (HPLC) Impurity A: High-temperature test/60° C.; for Relevant substance (HPLC) Impurity A: LOQ (0.035%)
Protocol: as §1

[6] = Illumination stress test (4500 Lx±500 Lx); conditions: for Appearance / Content (HPLC) (calculated as an anhydride) / Relevant substance (HPLC) Impurity D / Relevant substance (HPLC) Total impurities / Relevant substance (HPLC) Impurity A: Illumination test/4500Lx ± 500Lx; for Relevant substance (HPLC) Impurity A: LOQ (0.035%); for stability under illumination condition: stress testing, illumination (4500 Lx±500 Lx), monohydrate
Protocol: as §1

[7] = 6-month accelerated stability test (40° C.±2° C./75%±5% RH)
Protocol: Meanwhile, a 6-month accelerated stability test was conducted on the δ-crystalline form of (3Z,6Z)-3-benzylidene-6-[(5-tert-butyl-1H-imidazol-4-yl)deuteromethylene]piperazine-2,5-dione. The sample batch number was 20150404. Factory packaging was simulated. The test conditions were 40° C.±2° C./75%±5% RH.

[8] = after being stirred in water for 3 hours
[9] = listed as 20150401, monohydrate
[10] = listed as 20150402, monohydrate
[11] = listed as 20150403, monohydrate
[12] = listed as (3Z,6Z)-3-benzylidene-6-[(5-tert-butyl-1H-imidazol-4-yl)deuteromethylene]piperaz, monohydrate

CC(C)(C)c1[nH]cnc1/C=c1\[nH]c(=O)/c(=C/c2ccccc2)[nH]c1=O [a-crystalline form, (3Z,6Z)-3-benzylidene-6-[(5-tert-butyl-1H-imidazol-4-yl)methylene]piperazine-2,5-dione]
Hygroscopicity ([1]; plinabulin crystalline forms): certain hygroscopicity
transformation of crystalline form ([1]; under high humidity condition): easily transformed into a d-crystalline form

CC(C)(C)c1[nH]cnc1/C=c1\[nH]c(=O)/c(=C/c2ccccc2)[nH]c1=O.O [d-crystalline form, (3Z,6Z)-3-benzylidene-6-[(5-tert-butyl-1H-imidazol-4-yl)methylene]piperazine-2,5-dione monohydrate]
stability [1]: high stability
molecular stability ([1]; during preparation and storage processes): excellent molecular stability
stability as solid API in stress testing ([1]; high temperature, high humidity and illumination conditions): remain stable

[2H]/C(c1nc[nH]c1C(C)(C)C)=c1/[nH]c(=O)/c(=C/c2ccccc2)[nH]c1=O [α-crystalline form, (3Z,6Z)-3-benzylidene-6-[(5-tert-butyl-1H-imidazol-4-yl)deuteromethylene]piperazine-2,5-dione]
Hygroscopicity [2]: certain hygroscopicity
stability / transformation under high-humidity condition [3]: easily transformed into the δ-crystalline form; also recorded: absorbs moisture easily to transform into δ-crystalline form
transformation of crystalline form ([4]; under 60% humidity condition): may partially transform into δ-crystalline form

[2H]/C(c1nc[nH]c1C(C)(C)C)=c1/[nH]c(=O)/c(=C/c2ccccc2)[nH]c1=O [β-crystalline form, (3Z,6Z)-3-benzylidene-6-[(5-tert-butyl-1H-imidazol-4-yl)deuteromethylene]piperazine-2,5-dione]
Hygroscopicity [2]: no hygroscopicity
stability under high-temperature condition [5]: not stable enough
transformation of crystalline form [4, 8]: most of which may transform into δ-crystalline form

[2H]/C(c1nc[nH]c1C(C)(C)C)=c1/[nH]c(=O)/c(=C/c2ccccc2)[nH]c1=O [γ-crystalline form, (3Z,6Z)-3-benzylidene-6-[(5-tert-butyl-1H-imidazol-4-yl)deuteromethylene]piperazine-2,5-dione]
Hygroscopicity [2]: no hygroscopicity
stability under high-temperature condition [5]: not stable enough
transformation of crystalline form [4, 8]: most of which may transform into δ-crystalline form

O.[2H]/C(c1nc[nH]c1C(C)(C)C)=c1/[nH]c(=O)/c(=C/c2ccccc2)[nH]c1=O [δ-crystalline form, (3Z,6Z)-3-benzylidene-6-[(5-tert-butyl-1H-imidazol-4-yl)deuteromethylene]piperazine-2,5-dione monohydrate]
Weight gain [2, 9]: 0.20 mg
Weight gain [2, 10]: 0.24 mg
Weight gain [2, 11]: 0.20 mg
weight gain percentage ([2]; bottle opened for 24 hours): less than 0.2%
Hygroscopicity [2, 9]: none
Hygroscopicity [2, 10]: none
Hygroscopicity [2, 11]: none
Hygroscopicity ([2]; monohydrate): basically not hygroscopic
Appearance ([5]; day 0): Yellow powder
Content (HPLC) (calculated as an anhydride) ([5]; day 0): 99.7%
Relevant substance (HPLC) Impurity D ([5]; day 0): Impurity D: 0.06%
Relevant substance (HPLC) Total impurities ([5]; day 0): 0.07%
Relevant substance (HPLC) Impurity A ([5]; day 0): Impurity A: <LOQ
Appearance ([5]; day 5): Yellow powder
Content (HPLC) (calculated as an anhydride) ([5]; day 5): 99.4%
Relevant substance (HPLC) Impurity D ([5]; day 5): Impurity D: 0.06%
Relevant substance (HPLC) Total impurities ([5]; day 5): 0.07%
Relevant substance (HPLC) Impurity A ([5]; day 5): Impurity A: <LOQ
Appearance ([5]; day 10): Yellow powder
Content (HPLC) (calculated as an anhydride) ([5]; day 10): 99.8%
Relevant substance (HPLC) Impurity D ([5]; day 10): Impurity D: 0.06%
Relevant substance (HPLC) Total impurities ([5]; day 10): 0.07%
Relevant substance (HPLC) Impurity A ([5]; day 10): Impurity A: <LOQ
stability under high-temperature condition [5, 12]: remain stable
stability under high-temperature condition ([5]; monohydrate): very stable; also recorded: relatively stable
Appearance ([3]; day 0): Yellow powder
Content (HPLC) (calculated as an anhydride) ([3]; day 0): 99.7%
Relevant substance Impurity D ([3]; day 0): Impurity D: 0.06%
Relevant substance Total impurities ([3]; day 0): 0.07%
Relevant substance Impurity A ([3]; day 0): Impurity A: <LOQ
Appearance ([3]; day 5): Yellow powder
Content (HPLC) (calculated as an anhydride) ([3]; day 5): 99.5%
Relevant substance Impurity D ([3]; day 5): Impurity D: 0.06%
Relevant substance Total impurities ([3]; day 5): 0.07%
Relevant substance Impurity A ([3]; day 5): Impurity A: <LOQ
Appearance ([3]; day 10): Yellow powder
Content (HPLC) (calculated as an anhydride) ([3]; day 10): 99.6%
Relevant substance Impurity D ([3]; day 10): Impurity D: 0.06%
Relevant substance Total impurities ([3]; day 10): 0.07%
Relevant substance Impurity A ([3]; day 10): Impurity A: <LOQ
stability / transformation under high-humidity condition [3, 12]: remain stable
stability / transformation under high-humidity condition ([3]; monohydrate): very stable; also recorded: relatively stable
Appearance ([6]; day 0): Yellow powder
Content (HPLC) (calculated as an anhydride) ([6]; day 0): 99.7%
Relevant substance (HPLC) Impurity D ([6]; day 0): Impurity D: 0.06%
Relevant substance (HPLC) Total impurities ([6]; day 0): 0.07%
Relevant substance (HPLC) Impurity A ([6]; day 0): Impurity A: <LOQ
Appearance ([6]; day 5): Yellow powder
Content (HPLC) (calculated as an anhydride) ([6]; day 5): 100.1%
Relevant substance (HPLC) Impurity D ([6]; day 5): Impurity D: 0.05%
Relevant substance (HPLC) Total impurities ([6]; day 5): 0.05%
Relevant substance (HPLC) Impurity A ([6]; day 5): Impurity A: <LOQ
Appearance ([6]; day 10): Yellow powder
Content (HPLC) (calculated as an anhydride) ([6]; day 10): 99.8%
Relevant substance (HPLC) Impurity D ([6]; day 10): Impurity D: 0.05%
Relevant substance (HPLC) Total impurities ([6]; day 10): 0.05%
Relevant substance (HPLC) Impurity A ([6]; day 10): Impurity A: <LOQ
stability under illumination condition ([6]; listed as (3Z,6Z)-3-benzylidene-6-[(5-tert-butyl-1H-imidazol-4-yl)deuteromethylene]piperaz): remain stable
stability under illumination condition [6]: very stable; also recorded: relatively stable
stability in accelerated stability test ([7]; 6 months, monohydrate): very stable; also recorded: excellent stability
Content (HPLC) (calculated as an anhydride) ([7]; month 0): 99.5%
Relevant substance (HPLC) Impurity D ([7]; month 0): 0.06%
Relevant substance (HPLC) Other single impurity ([7]; month 0): Not detected
Relevant substance (HPLC) Total impurities ([7]; month 0): 0.07%
Relevant substance (HPLC) Impurity A ([7]; month 0, LOQ (0.035%)): <LOQ
Content (HPLC) (calculated as an anhydride) ([7]; month 1): 99.6%
Relevant substance (HPLC) Impurity D ([7]; month 1): 0.06%
Relevant substance (HPLC) Other single impurity ([7]; month 1): Not detected
Relevant substance (HPLC) Total impurities ([7]; month 1): 0.08%
Relevant substance (HPLC) Impurity A ([7]; month 1, LOQ (0.035%)): <LOQ
Content (HPLC) (calculated as an anhydride) ([7]; month 2): 100.2%
Relevant substance (HPLC) Impurity D ([7]; month 2): 0.06%
Relevant substance (HPLC) Other single impurity ([7]; month 2): Not detected
Relevant substance (HPLC) Total impurities ([7]; month 2): 0.08%
Relevant substance (HPLC) Impurity A ([7]; month 2, LOQ (0.035%)): <LOQ
Content (HPLC) (calculated as an anhydride) ([7]; month 3): 99.8%
Relevant substance (HPLC) Impurity D ([7]; month 3): 0.06%
Relevant substance (HPLC) Other single impurity ([7]; month 3): Not detected
Relevant substance (HPLC) Total impurities ([7]; month 3): 0.08%
Relevant substance (HPLC) Impurity A ([7]; month 3, LOQ (0.035%)): <LOQ
Content (HPLC) (calculated as an anhydride) ([7]; month 6): 99.7%
Relevant substance (HPLC) Impurity D ([7]; month 6): 0.06%
Relevant substance (HPLC) Other single impurity ([7]; month 6): Not detected
Relevant substance (HPLC) Total impurities ([7]; month 6): 0.08%
Relevant substance (HPLC) Impurity A ([7]; month 6, LOQ (0.035%)): <LOQ

CC(C)O.[2H]/C(c1nc[nH]c1C(C)(C)C)=c1/[nH]c(=O)/c(=C/c2ccccc2)[nH]c1=O [ε-crystalline form, (3Z,6Z)-3-benzylidene-6-[(5-tert-butyl-1H-imidazol-4-yl)deuteromethylene]piperazine-2,5-dione monoisopropylate]
stability under high-temperature condition [5]: not stable enough
